Active and inactive are the calls of the source. The calls are words filed in the database; no cut-off is given here.
Key:
[1] = Activation of autophagy in human SH-SY5Y cells expressing GFP-LC3-RFP assessed as green-to-red signal ratio at 250 mkM relative to control; format: functional; settings: at 250 µM
[2] = Activation of autophagy in human SH-SY5Y cells expressing GFP-LC3-RFP assessed as green-to-red signal ratio at 25 mkM relative to control; format: functional; settings: at 25 µM
[3] = Activation of autophagy in human SH-SY5Y cells expressing GFP-LC3-RFP assessed as green-to-red signal ratio at 2.5 mkM relative to control; format: functional; settings: at 2.5 µM
SH-SY5Y [4] = experiment: Activation of autophagy in human SH-SY5Y cells expressing GFP-LC3-RFP assessed as increase in LC3-II level at 25 to 250 mkM by Western blot analysis; format: functional, cell-based; settings: dose 25-250 mkM
SH-SY5Y [5] = experiment: Activation of mitophagy in human SH-SY5Y cells expressing GFP-LC3-RFP assessed as increase in phospho-ubiquitin level at 25 to 250 mkM by Western blot analysis; format: functional, cell-based; settings: dose 25-250 mkM
SH-SY5Y [6] = experiment: Effect on AKT phosphorylation at T308 in human SH-SY5Y cells expressing GFP-LC3-RFP at 25 to 250 mkM by Western blot analysis; format: functional, cell-based; settings: dose 25-250 mkM
SH-SY5Y [7] = experiment: Effect on TSC2 phosphorylation in human SH-SY5Y cells expressing GFP-LC3-RFP at 25 to 250 mkM by Western blot analysis; format: functional, cell-based; settings: dose 25-250 mkM
SH-SY5Y [8] = experiment: Activation of autophagy in human SH-SY5Y cells expressing GFP-LC3-RFP assessed as increase in AMPK phosphorylation by Western blot analysis; format: functional, cell-based; settings: dose 25-250 mkM
SH-SY5Y [9] = experiment: Activation of autophagy in human SH-SY5Y cells expressing GFP-LC3-RFP assessed as increase in ULK1 phosphorylation at S555 at 25 to 250 mkM by Western blot analysis; format: functional, cell-based; settings: dose 25-250 mkM
SH-SY5Y [10] = experiment: Activation of autophagy in human SH-SY5Y cells expressing GFP-LC3-RFP assessed as increase in Beclin-1 level at 25 to 250 mkM by Western blot analysis; format: functional, cell-based; settings: dose 25-250 mkM
SH-SY5Y [11] = experiment: Activation of autophagy in human SH-SY5Y cells expressing SIRT1-/-/GFP-LC3-RFP assessed as increase in green-to-red signal ratio at 25 to 250 mkM; format: functional, cell-based; settings: dose 25-250 mkM
SH-SY5Y [12] = experiment: Activation of autophagy in human SH-SY5Y cells expressing AMPK-/-/GFP-LC3-RFP assessed as increase in green-to-red signal ratio at 25 to 250 mkM; format: functional, cell-based; settings: dose 25-250 mkM
SH-SY5Y [13] = experiment: Activation of autophagy in human SH-SY5Y cells expressing GFP-LC3-RFP assessed as increase in LC3-II level at 250 mkM by Western blot analysis; format: functional, cell-based
SH-SY5Y [14] = experiment: Activation of autophagy in human SH-SY5Y cells expressing GFP-LC3-RFP assessed as increase in AMPK phosphorylation at 25 to 250 mkM by Western blot analysis; format: functional, cell-based; settings: dose 25-250 mkM
SH-SY5Y [15] = experiment: Downregulation of ULK phosphorylation at S757 in human SH-SY5Y cells expressing GFP-LC3-RFP at 25 to 250 mkM by Western blot analysis; format: functional, cell-based; settings: dose 25-250 mkM
SH-SY5Y [16] = experiment: Downregulation of 4E-BP1 phosphorylation in human SH-SY5Y cells expressing GFP-LC3-RFP at 25 to 250 mkM by Western blot analysis; format: functional, cell-based; settings: dose 25-250 mkM

Compound | Ratio [1] [%] | Ratio [2] [%] | Ratio [3] [%] | Activity (SH-SY5Y [4]) | Activity (SH-SY5Y [5]) | Activity (SH-SY5Y [6]) | Activity (SH-SY5Y [7]) | Activity (SH-SY5Y [8]) | Activity (SH-SY5Y [9]) | Activity (SH-SY5Y [10]) | Activity (SH-SY5Y [11]) | Activity (SH-SY5Y [12]) | Activity (SH-SY5Y [13]) | Activity (SH-SY5Y [14]) | Activity (SH-SY5Y [15]) | Activity (SH-SY5Y [16])
Nc1ncnc2c1[nH]c(=O)n2[C@@H]1O[C@H](CO)[C@@H](O)[C@H]1O | 5.71 | 3.62 | 1.31 | Active; Exhibited Moderate Activity | inactive | Active | inactive | Dose-dependent-effect | Active | Active | Active | Active | – | – | – | –
CNc1ncnc2c1ncn2[C@@H]1O[C@H](CO)[C@@H](O)[C@H]1O | 3.36 | -1.43 | -1.2 | Not active; Exhibited Weakest Activity Among Tested Compounds | – | – | – | – | – | – | – | – | Active | – | – | –
Nc1ncnc2c1nc(Br)n2COCCO | -0.4 | 1.28 | 1.31 | – | – | – | – | – | – | – | – | – | – | – | – | –
Nc1ncnc2c1[nH]c(=O)n2COCCO | 2.59 | -2.79 | -0.47 | Not active; Exhibited Weakest Activity Among Tested Compounds | – | – | – | – | – | – | – | – | Active | – | – | –
CCC(CC)COC(=O)[C@@H](C)N[P@](=O)(OC[C@H]1O[C@@H](n2cnc3c(NC)ncnc32)[C@H](O)[C@@H]1O)Oc1ccccc1 | 7.26 | 0.44 | -3.79 | Active; Exhibited Higher Activity Compared To Parent Compound | inactive | inactive | – | – | Active | – | Active | Active | – | Active | Active; Result Provides Indirect Evidence Of Mtor Inhibition | Active; Result Provides Indirect Evidence Of Mtor Inhibition
O=c1[nH]c2c(ncn3ccnc23)n1[C@@H]1O[C@H](CO)[C@@H](O)[C@H]1O | -0.79 | -1.76 | -1.32 | – | – | – | – | – | – | – | – | – | – | – | – | –
Nc1nc2c([nH]c(=O)n2[C@H]2C[C@H](O)[C@@H](CO)O2)c(=O)[nH]1 | 1.94 | 1.51 | -0.68 | – | – | – | – | – | – | – | – | – | – | – | – | –
Nc1ncnc2c1[nH]c(=O)n2[C@H]1C[C@H](O)[C@@H](CO)O1 | 5.41 | 1.85 | 1.85 | Active; Exhibited Moderate Activity | inactive | Active | inactive | Dose-dependent-effect | Active | Active | Active | Active | – | – | – | –
Nc1ncnc2c1nc(Br)n2[C@H]1C[C@H](O)[C@@H](CO)O1 | 0.2 | 3.16 | 1.78 | – | – | – | – | – | – | – | – | – | – | – | – | –
